Laboratory results published in patent publication US20250122181A1, “BENZIMIDAZOLES AS MODULATORS OF IL-17” (Janssen Pharmaceutica NV, priority 2021, published 2025).

How the values were obtained:
[1] = tested on: IL-17A-induced G-CSF production in human normal keratinocyte (NHK); test: NHK Assay: IL-17A-induced G-CSF production in human normal keratinocyte; assay type: cell-based; conditions: Homo sapiens, Keratinocyte, 24 h, IL-17A 5 ng/mL, simple average if tested more than once
How it was run: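 IC50 derives from G-CSF in supernatants, quantified by HTRF from a standard curve, with CellTiter-Glo viability compared to DMSO control. Before a 24 h, 37°C culture of normal human keratinocytes at 3000–4000 cells/well, compound dilutions were preincubated 1 h at rt with human IL-17A (5 ng/mL final), with 0.2% DMSO and 5% FBS.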

[2] = target: IL-17A(FLAG-Tagged): IL-17RA(His-Tagged) (Homo sapiens, UniProt Q16552, K93Q); test: IL-17A(FLAG-Tagged): IL-17RA(His-Tagged) Binding Disruption Eu-HTRF Assay, Protocol 1; conditions: Protocol 1, FLAG tagged IL-17A 2.5 nM; simple average if tested more than once
How it was run: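 IC50 came from a one-site competition fit of the acceptor/donor (665/620 nm) HTRF ratio. His-tagged IL-17RA, Eu-anti-FLAG and D2-anti-His were added after a 1 h rt compound preincubation with FLAG-tagged IL-17A dimer in PBS/0.01% Triton X-100, followed by 2 h at rt before reading.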

Chain of UniProt Q16552 (Q16552 with tags, fused parts or gaps K93Q): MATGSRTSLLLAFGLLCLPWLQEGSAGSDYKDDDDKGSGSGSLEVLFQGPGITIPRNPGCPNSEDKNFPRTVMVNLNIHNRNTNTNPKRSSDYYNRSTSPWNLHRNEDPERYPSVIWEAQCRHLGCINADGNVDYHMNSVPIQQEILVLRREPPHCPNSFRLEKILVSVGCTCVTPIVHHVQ

Compound | IC50 [1] [nM] | IC50 [2] [nM]
COC[C@H](c1ccc2[nH]c([C@@H](NC(=O)c3nonc3C)[C@@H](C)O[C@@H](C)C(F)(F)F)nc2c1)N1CC(F)(F)CNC1=O [Example 50, N-((1R,2R)-1-(5-((S)-1-(5,5-Difluoro-2-oxotetrahydropyrimidin-1(2H)-yl)-2-methoxyethyl)-1H-benzo[d]imidazol-2-yl)-2-(((S)-1,1,1-trifluoropropan-2-yl)oxy)propyl)-4-methyl-1,2,5-oxadiazole-3-carboxamide] | < 50 | < 50
CC(C)(OC[C@H](NC(=O)c1nonc1C1CC1)c1nc2cc([C@@H](C3CC3)N3C[C@@H](C(F)(F)F)NC3=O)ccc2[nH]1)C(F)(F)F [Example 1, 4-Cyclopropyl-N—((R)-1-(5-((R)-cyclopropyl((S)-2-oxo-4-(trifluoromethyl)imidazolidin-1-yl)methyl)-1H-benzo[d]imidazol-2-yl)-2-((1,1,1-trifluoro-2-methylpropan-2-yl)oxy)ethyl)-1,2,5-oxadiazole-3-carboxamide] | < 50 | < 50
COC[C@H](c1ccc2[nH]c(C(NC(=O)c3nonc3C)[C@@H](C)O[C@H](C)C(F)(F)F)nc2n1)N1CC(F)(F)CNC1=O (single isomer, unassigned) [Example 21, N-((1R*,2R)-1-(5-((S)-1-(5,5-Difluoro-2-oxotetrahydropyrimidin-1(2H)-yl)-2-methoxyethyl)-1H-imidazo[4,5-b]pyridin-2-yl)-2-(((R)-1,1,1-trifluoropropan-2-yl)oxy)propyl)-4-methyl-1,2,5-oxadiazole-3-carboxamide] | < 50 | < 50
Cc1nonc1C(=O)N[C@@H](COC(C)(C)C(F)(F)F)c1nc2cc(CN3C[C@@](C)(C(F)(F)F)NC3=O)ccc2[nH]1 (relative stereo) [Example 58, 4-Methyl-N—((R*)-1-(5-(((S*)-4-methyl-2-oxo-4-(trifluoromethyl)imidazolidin-1-yl)methyl)-1H-benzo[d]imidazol-2-yl)-2-((1,1,1-trifluoro-2-methylpropan-2-yl)oxy)ethyl)-1,2,5-oxadiazole-3-carboxamide] | < 50 | < 50
Cc1nonc1C(=O)NC(COC(C)(C)C(F)(F)F)c1nc2nc([C@@H](C3CC3)N3CC(F)(F)CNC3=O)ccc2[nH]1 (single isomer, unassigned) [Example 18, N—((R*)-1-(5-((R)-Cyclopropyl(5,5-difluoro-2-oxotetrahydropyrimidin-1(2H)-yl)methyl)-1H-imidazo[4,5-b]pyridin-2-yl)-2-((1,1,1-trifluoro-2-methylpropan-2-yl)oxy)ethyl)-4-methyl-1,2,5-oxadiazole-3-carboxamide] | 50 to 100 | < 50
CC(C)n1nccc1C(=O)N[C@@H](COC(C)(C)C(F)(F)F)c1nc2ccc(CN3CC(F)(F)CNC3=O)cc2[nH]1 [Example 29, (R)—N-(1-(6-((5,5-Difluoro-2-oxotetrahydropyrimidin-1(2H)-yl)methyl)-1H-benzo[d]imidazol-2-yl)-2-((1,1,1-trifluoro-2-methylpropan-2-yl)oxy)ethyl)-1-isopropyl-1H-pyrazole-5-carboxamide] | < 50 | < 50
[2H]C1([2H])[C@@H](C(F)(F)F)NC(=O)N1[C@H](COC)c1ccc2[nH]c([C@H](COC(C)(C)C(F)(F)F)NC(=O)c3nonc3C)nc2c1 (relative stereo) [Example 55, N—((R*)-1-(5-((S)-2-methoxy-1-((S*)-2-oxo-4-(trifluoromethyl)imidazolidin-1-yl-5,5-d2)ethyl)-1H-benzo[d]imidazol-2-yl)-2-((1,1,1-trifluoro-2-methylpropan-2-yl)oxy)ethyl)-4-methyl-1,2,5-oxadiazole-3-carboxamide] | < 50 | < 50
CC(C)(OC[C@H](NC(=O)c1nonc1C1CC1)c1nc2ccc(CN3CC(F)(F)CNC3=O)cc2[nH]1)C(F)(F)F [Example 30, (R)-4-Cyclopropyl-N-(1-(6-((5,5-difluoro-2-oxotetrahydropyrimidin-1(2H)-yl)methyl)-1H-benzo[d]imidazol-2-yl)-2-((1,1,1-trifluoro-2-methylpropan-2-yl)oxy)ethyl)-1,2,5-oxadiazole-3-carboxamide] | < 50 | < 50
C[C@@H](O[C@H](C)C(F)(F)F)C(NC(=O)c1nonc1C1CC1)c1nc2nc([C@@H](C3CC3)N3CC(F)(F)CNC3=O)ccc2[nH]1 (single isomer, unassigned) [Example 20, 4-Cyclopropyl-N-((1R*,2R)-1-(5-((R)-cyclopropyl(5,5-difluoro-2-oxotetrahydropyrimidin-1(2H)-yl)methyl)-1H-imidazo[4,5-b]pyridin-2-yl)-2-(((R)-1,1,1-trifluoropropan-2-yl)oxy)propyl)-1,2,5-oxadiazole-3-carboxamide] | < 50 | < 50
CC(C)(OC[C@H](NC(=O)c1nonc1C1CC1)c1nc2cc([C@@H](C3CC3)N3CC(F)(F)CNC3=O)ccc2[nH]1)C(F)(F)F [Example 22, 4-Cyclopropyl-N—((R)-1-(5-((R)-cyclopropyl(5,5-difluoro-2-oxotetrahydropyrimidin-1(2H)-yl)methyl)-1H-benzo[d]imidazol-2-yl)-2-((1,1,1-trifluoro-2-methylpropan-2-yl)oxy)ethyl)-1,2,5-oxadiazole-3-carboxamide] | < 50 | < 50
Cc1nonc1C(=O)N[C@@H](COC(C)(C)C(F)(F)F)c1nc2cc([C@@H](C3CC3)N3CC(F)(F)CNC3=O)ccc2[nH]1 [Example 23, N—((R)-1-(5-((R)-Cyclopropyl(5,5-difluoro-2-oxotetrahydropyrimidin-1(2H)-yl)methyl)-1H-benzo[d]imidazol-2-yl)-2-((1,1,1-trifluoro-2-methylpropan-2-yl)oxy)ethyl)-4-methyl-1,2,5-oxadiazole-3-carboxamide] | < 50 | < 50
Cc1nonc1C(=O)N[C@@H](COC(C)(C)C(F)(F)F)c1nc2cc([C@@H](C3CC3)N3C[C@@H](C(F)(F)F)NC3=O)ccc2[nH]1 [Example 2, N—((R)-1-(5-((R)-Cyclopropyl((S)-2-oxo-4-(trifluoromethyl)imidazolidin-1-yl)methyl)-1H-benzo[d]imidazol-2-yl)-2-((1,1,1-trifluoro-2-methylpropan-2-yl)oxy)ethyl)-4-methyl-1,2,5-oxadiazole-3-carboxamide] | < 50 | < 50
COC[C@H](c1ccc2[nH]c(C(COC(C)(C)C(F)(F)F)NC(=O)c3cnn(CC4CC4)n3)nc2c1)N1CC(F)(F)CNC1=O (single isomer, unassigned) [Example 51, 2-(Cyclopropylmethyl)-N—((R*)-1-(5-((S)-1-(5,5-difluoro-2-oxotetrahydropyrimidin-1(2H)-yl)-2-methoxyethyl)-1H-benzo[d]imidazol-2-yl)-2-((1,1,1-trifluoro-2-methylpropan-2-yl)oxy)ethyl)-2H-1,2,3-triazole-4-carboxamide] | 50 to 100 | < 50
[2H]C1([2H])[C@H](C(F)(F)F)NC(=O)N1[C@@H](c1ccc2[nH]c([C@H](CC(C)(C)C(F)(F)F)NC(=O)c3nonc3C)nc2c1)C1CC1 (relative stereo) [Example 53, N—((S)-1-(5-((R)-Cyclopropyl((S*)-2-oxo-4-(trifluoromethyl)imidazolidin-1-yl-5,5-d2)methyl)-1H-benzo[d]imidazol-2-yl)-4,4,4-trifluoro-3,3-dimethylbutyl)-4-methyl-1,2,5-oxadiazole-3-carboxamide] | < 50 | < 50
Cc1nonc1C(=O)N[C@@H](COC(C)(C)C(F)(F)F)c1nc2cc([C@@H](C)N3CC(F)(F)CNC3=O)ccc2[nH]1 (relative stereo) [Example 26, N—((R)-1-(5-((R*)-1-(5,5-Difluoro-2-oxotetrahydropyrimidin-1(2H)-yl)ethyl)-1H-benzo[d]imidazol-2-yl)-2-((1,1,1-trifluoro-2-methylpropan-2-yl)oxy)ethyl)-4-methyl-1,2,5-oxadiazole-3-carboxamide] | < 50 | < 50
CC(C)n1ncnc1C(=O)N[C@@H](COC(C)(C)C(F)(F)F)c1nc2cc([C@@H](C3CC3)N3C[C@@H](C(F)(F)F)NC3=O)ccc2[nH]1 [Example 5, N—((R)-1-(5-((R)-Cyclopropyl((S)-2-oxo-4-(trifluoromethyl)imidazolidin-1-yl)methyl)-1H-benzo[d]imidazol-2-yl)-2-((1,1,1-trifluoro-2-methylpropan-2-yl)oxy)ethyl)-1-isopropyl-1H-1,2,4-triazole-5-carboxamide] | < 50 | < 50
CC(C)n1ncc(F)c1C(=O)N[C@@H](COC(C)(C)C(F)(F)F)c1nc2cc([C@@H](C3CC3)N3C[C@@H](C(F)(F)F)NC3=O)ccc2[nH]1 [Example 3, N—((R)-1-(5-((R)-Cyclopropyl((S)-2-oxo-4-(trifluoromethyl)imidazolidin-1-yl)methyl)-1H-benzo[d]imidazol-2-yl)-2-((1,1,1-trifluoro-2-methylpropan-2-yl)oxy)ethyl)-4-fluoro-1-isopropyl-1H-pyrazole-5-carboxamide] | < 50 | < 50
Cc1nonc1C(=O)NC(COC(C)(C)C(F)(F)F)c1nc2cc([C@@H](COC3CC3)N3C[C@@H](C(F)(F)F)NC3=O)ccc2[nH]1 (single isomer, unassigned) [Example 41, N—((R*)-1-(5-((S)-2-cyclopropoxy-1-((S)-2-oxo-4-(trifluoromethyl)imidazolidin-1-yl)ethyl)-1H-benzo[d]imidazol-2-yl)-2-((1,1,1-trifluoro-2-methylpropan-2-yl)oxy)ethyl)-4-methyl-1,2,5-oxadiazole-3-carboxamide] | < 50 | < 50
